# Laboratory results published in patent US12098139B2, “Chemokine receptor modulators and uses thereof” (RAPT Therapeutics, Inc., priority 2018, dated 2024).
# Where two headings read alike, the source gives them in different places.
# Target: T1, hCCR4 (Chem5-hCCR4 cells) (Homo sapiens, UniProt P51679)
# T1 sequence (P51679 1-360): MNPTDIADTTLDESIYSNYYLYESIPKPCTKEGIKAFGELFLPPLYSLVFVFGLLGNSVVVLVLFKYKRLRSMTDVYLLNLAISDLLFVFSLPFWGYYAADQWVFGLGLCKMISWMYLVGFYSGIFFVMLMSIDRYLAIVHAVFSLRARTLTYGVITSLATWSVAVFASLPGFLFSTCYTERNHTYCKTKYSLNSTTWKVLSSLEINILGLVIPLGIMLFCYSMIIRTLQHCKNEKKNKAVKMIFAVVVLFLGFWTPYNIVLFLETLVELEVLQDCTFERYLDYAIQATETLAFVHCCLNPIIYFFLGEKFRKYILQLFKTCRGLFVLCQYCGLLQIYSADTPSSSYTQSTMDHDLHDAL
# Assay: Calcium flux assay (CCL22-stimulated, FLIPR Calcium 6 dye)
# Assay type: cell-based
# Settings: read-out: Potency (IC50)
# Method in brief: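 Chem5-hCCR4 cells were serum-starved 2 h and loaded 2 h with Calcium 6 dye plus 2.5 mM probenecid. They were then preincubated 1 h at 37 °C with compound (0.5% DMSO). CCL22 was added from a 7.5 nM working solution (5× EC80), and ΔF/Fmin at 485/525 nm was fitted 4-parameter for IC50.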
"IC50 (Table 3, CCL22 1.5 nM) [nM]","IC50 (Table 5, CCL22 1.5 nM) [nM]",Structure (SMILES)
< 100,–,"C[C@@H](Nc1nc(N2CC([C@H]3CCCN([C@H]4C[C@](C)(C(=O)O)C4)C3)C2)ncc1Br)c1ccc(Cl)cc1Cl [Example 13, (1R,3r)-3-((R)-3-(1-(5-bromo-4-(((R)-1-(2,4-dichlorophenyl)ethyl)amino)pyrimidin-2-yl)azetidin-3-yl)piperidin-1-yl)-1-methylcyclobutane-1-carboxylic acid]"
< 100,–,"C[C@@H](Nc1nc(N2CC([C@H]3CCCN([C@H]4C[C@](C)(C(=O)O)C4)C3)C2)ncc1C1CC1)c1ccc(Cl)cc1Cl [Example 41, (1R,3r)-3-((R)-3-(1-(5-cyclopropyl-4-(((R)-1-(2,4-dichlorophenyl)ethyl)amino)pyrimidin-2-yl)azetidin-3-yl)piperidin-1-yl)-1-methylcyclobutane-1-carboxylic acid]"
100 to 500,–,"CC[C@]1(C(=O)O)C[C@H](N2CCC[C@H](C3CN(c4ncc(Cl)c(N[C@H](C)c5ccc(Cl)cc5Cl)n4)C3)C2)C1 [Example 23, (1R,3s)-3-((R)-3-(1-(5-chloro-4-(((R)-1-(2,4-dichlorophenyl)ethyl)amino)pyrimidin-2-yl)azetidin-3-yl)piperidin-1-yl)-1-ethylcyclobutane-1-carboxylic acid]"
< 100,–,"Cc1nc(N2CC([C@H]3CCCN([C@H]4C[C@](C)(C(=O)O)C4)C3)C2)nc(N[C@H](C)c2ccc(Cl)cc2Cl)c1Cl [Example 38, (1R,3r)-3-((R)-3-(1-(5-chloro-4-(((R)-1-(2,4-dichlorophenyl)ethyl)amino)-6-methylpyrimidin-2-yl)azetidin-3-yl)piperidin-1-yl)-1-methylcyclobutane-1-carboxylic acid]"
100 to 500,–,"C[C@@H](Nc1nc(N2CC([C@H]3CCCN(CCO)C3)C2)ncc1Cl)c1ccc(F)cc1Cl [Example 44, 2-((R)-3-(1-(5-chloro-4-(((R)-1-(2-chloro-4-fluorophenyl)ethyl)amino)pyrimidin-2-yl)azetidin-3-yl)piperidin-1-yl)ethan-1-ol]"
< 100,–,"C[C@@H](Nc1nc(N2CC([C@H]3CCCN([C@H]4C[C@@H](C(=O)O)C4)C3)C2)ncc1Br)c1ccc(Cl)cc1Cl [Example 9, (1S,3s)-3-((R)-3-(1-(5-bromo-4-(((R)-1-(2,4-dichlorophenyl)ethyl)amino)pyrimidin-2-yl)azetidin-3-yl)piperidin-1-yl)cyclobutane-1-carboxylic acid]"
< 100,–,"C[C@@H](Nc1nc(N2CC([C@H]3CCCN([C@H]4C[C@@](C)(C(=O)O)C4)C3)C2)ncc1Cl)c1ccc(Cl)cc1Cl [Example 40, (1S,3s)-3-((R)-3-(1-(5-chloro-4-(((R)-1-(2,4-dichlorophenyl)ethyl)amino)pyrimidin-2-yl)azetidin-3-yl)piperidin-1-yl)-1-methylcyclobutane-1-carboxylic acid]"
< 100,–,"Cc1cnc(N2CC([C@H]3CCCN(CCN4CCCC4=O)C3)C2)nc1N[C@H](C)c1ccc(Cl)cc1Cl [Example 16, 1-(2-((R)-3-(1-(4-(((R)-1-(2,4-dichlorophenyl)ethyl)amino)-5-methylpyrimidin-2-yl)azetidin-3-yl)piperidin-1-yl)ethyl)pyrrolidin-2-one]"
–,< 100,"CCc1cc(N[C@H](C)c2ccc(Cl)cc2Cl)nc(N2CC([C@H]3CCCN(C4CC(C)(C(=O)O)C4)C3)C2)n1 (single isomer, unassigned) [Example 92]"
100 to 500,–,"C[C@@H](Nc1cncc(N2CC([C@H]3CCCN(CCO)C3)C2)n1)c1ccc(Cl)cc1Cl [Example 2, 2-((R)-3-(1-(6-(((R)-1-(2,4-dichlorophenyl)ethyl)amino)pyrazin-2-yl)azetidin-3-yl)piperidin-1-yl)ethan-1-ol]"
–,< 100,"COC(C)c1cnc(N2CC([C@H]3CCCN([C@H]4C[C@](C)(C(=O)O)C4)C3)C2)nc1N[C@H](C)c1ccc(Cl)cc1Cl (stereo partly drawn) [Example 79, 3-[(3R)-3-[1-[4-[[(1R)-1-(2,4-dichlorophenyl)ethyl]amino]-5-(1-methoxyethyl)pyrimidin-2-yl]azetidin-3-yl]-1-piperidyl]-1-methyl-cyclobutanecarboxylic acid; 2,2,2-trifluoroacetic acid]"
–,> 500,"COc1cc(N[C@H](C)c2ccc(Cl)cc2Cl)nc(N2CC([C@H]3CCCN(C4CC(C)(C(=O)O)C4)C3)C2)n1 (single isomer, unassigned) [Example 82]"
< 100,–,"C[C@@H](Nc1nc(N2CC([C@H]3CCCN(CCO)C3)C2)ncc1C#N)c1ccc(Cl)cc1Cl [Example 14, 4-(((R)-1-(2,4-dichlorophenyl)ethyl)amino)-2-(3-((R)-1-(2-hydroxyethyl)piperidin-3-yl)azetidin-1-yl)pyrimidine-5-carbonitrile]"
< 100,–,"C[C@@H](Nc1nc(N2CC([C@H]3CCCN([C@H]4C[C@](C)(C(=O)O)C4)C3)C2)nc2ccsc12)c1ccc(Cl)cc1Cl [Example 28, (1R,3r)-3-((R)-3-(1-(4-(((R)-1-(2,4-dichlorophenyl)ethyl)amino)thieno[3,2-d]pyrimidin-2-yl)azetidin-3-yl)piperidin-1-yl)-1-methylcyclobutane-1-carboxylic acid]"
–,< 100,"C[C@@H](Nc1cc(C2CC2)nc(N2CC([C@H]3CCCN(C4CC(C)(C(=O)O)C4)C3)C2)n1)c1ccc(Cl)cc1Cl (single isomer, unassigned) [Example 80]"
100 to 500,–,"C[C@@H](Nc1nc(N2CC(C3CCCN(CCN4CCCC4=O)C3C(=O)O)C2)ncc1Cl)c1ccc(Cl)cc1Cl (stereo partly drawn) [Example 34, 3-(1-(5-chloro-4-(((R)-1-(2,4-dichlorophenyl)ethyl)amino)pyrimidin-2-yl)azetidin-3-yl)-1-(2-(2-oxopyrrolidin-1-yl)ethyl)piperidine-2-carboxylic acid]"
100 to 500,–,"Cc1nc(N2CC([C@H]3CCCN([C@H]4C[C@@H](C(=O)O)C4)C3)C2)nc(N[C@H](C)c2ccc(Cl)cc2Cl)c1C [Example 30, (1S,3s)-3-((R)-3-(1-(4-(((R)-1-(2,4-dichlorophenyl)ethyl)amino)-5,6-dimethylpyrimidin-2-yl)azetidin-3-yl)piperidin-1-yl)cyclobutane-1-carboxylic acid]"
–,< 100,"C[C@@H](Nc1nc(N2CC([C@H]3CCCN(C4CC(C)(C(=O)O)C4)C3)C2)nc2ccn(C)c12)c1ccc(Cl)cc1Cl (single isomer, unassigned) [Example 81, trifluoroacetic acid]"
100 to 500,–,"C[C@@H](Nc1nc(N2CC([C@H]3CCCN([C@H]4C[C@@H](C(=O)O)C4)C3)C2)cnc1C#N)c1ccc(Cl)cc1Cl [Example 5, (1S,3s)-3-((R)-3-(1-(5-cyano-6-(((R)-1-(2,4-dichlorophenyl)ethyl)amino)pyrazin-2-yl)azetidin-3-yl)piperidin-1-yl)cyclobutane-1-carboxylic acid]"
–,< 100,"C[C@@H](Nc1nc(N2CC([C@H]3CCCN([C@H]4C[C@@H](C(=O)O)C4)C3)C2)nc2ccccc12)c1ccc(Cl)cc1Cl [Example 95, 3-[(1S,3R)-3-[1-[4-[[(1R)-1-(2,4-dichlorophenyl)ethyl]amino]quinazolin-2-yl]azetidin-3-yl]-1-piperidyl]cyclobutanecarboxylic acid; 2,2,2-trifluoroacetic acid]"
< 100,–,"C[C@@H](Nc1nc(N2CC([C@H]3CCCN([C@H]4C[C@](C)(C(=O)O)C4)C3)C2)ncc1Cl)c1ccc(Cl)cc1Cl [Example 12, (1R,3r)-3-((R)-3-(1-(5-chloro-4-(((R)-1-(2,4-dichlorophenyl)ethyl)amino)pyrimidin-2-yl)azetidin-3-yl)piperidin-1-yl)-1-methylcyclobutane-1-carboxylic acid]"
–,100 to 500,"C[C@@H](Nc1nc(N2CC([C@H]3CCCN(CCO)C3)C2)ncc1C(=O)N1CCCC1)c1ccc(Cl)cc1Cl [Example 85, [4-[[(1R)-1-(2,4-dichlorophenyl)ethyl]amino]-2-[3-[(3R)-1-(2-hydroxyethyl)-3-piperidyl]azetidin-1-yl]pyrimidin-5-yl]-pyrrolidin-1-yl-methanone; 2,2,2-trifluoroacetic acid]"
–,< 100,"Cc1nc(N2CC([C@H]3CCCN(C4CC(C)(C(=O)O)C4)C3)C2)nc(N[C@H](C)c2ccc(Cl)cc2Cl)c1F (single isomer, unassigned) [Example 91, trifluoroacetic acid]"
–,< 100,"Cc1cc(N[C@H](C)c2ccc(Cl)cc2Cl)nc(N2CC([C@H]3CCCN(C4CC(C)(C(=O)O)C4)C3)C2)n1 (single isomer, unassigned) [Example 90]"
